Data set [1] in a line: method code SF-TN, from DOI: 10.1002/ardp.19763091008, PMID: 1008678.
A short description of data set [2]: method code SF-AS, from DOI: 10.1007/s001280000002, PMID: 10757653.
Data set [3] in a line: method code SF-RC,AS, from DOI: 10.1021/es60170a013. Conditions: pH 8.7.
A short description of data set [4]: method code SF-AS, from DOI: 10.1007/s00044-012-0399-x.
A short description of data set [5]: method code SF, from DOI: 10.1177/1087057110396372, PMID: 21343602. Conditions: pH 7.4.
Data set [6] can be described thus: method code SF-RC, from DOI: 10.1111/j.1399-3054.1990.tb08712.x.
The nature of data set [7]: method code SF-GLC, from DOI: 10.1016/j.chemosphere.2013.04.065, PMID: 23732011.
The nature of data set [8]: method code SF-AS, from DOI: 10.1021/jf60177a051.
Test in data set [9]: not given
The source holds these as a separate data set.

The nature of data set [10]: method code SF-GLC, from DOI: 10.1016/s0021-9673(00)81319-9.
Test in data set [11]: not given
This is another data set of the same source.

A short description of data set [12]: method code SF-HPLC, from DOI: 10.1002/jps.10112, PMID: 12115830. Conditions: pH 7.4.
Test in data set [13]: not given
This is another data set of the same source.

The nature of data set [14]: method code SF, from DOI: 10.1016/s0968-0896(00)00025-0, PMID: 10882003.
Data set [15] in a line: method code SF-RC, from DOI: 10.1016/s0969-8051(00)00080-9, PMID: 10832080. Conditions: pH 13.0.
Data set [16] can be described thus: method code SF-HPLC, from DOI: 10.1016/0006-2952(84)90322-8, PMID: 6704182.
The nature of data set [17]: method code SF-AS, from DOI: 10.1016/0223-5234(96)88239-0. Conditions: pH 2.0.
Data set [18] can be described thus: method code SF, from DOI: 10.1016/0378-5173(87)90234-1. The conditions noted are these: pH 4.0.
The nature of data set [19]: method code SF-AS, from PMID: 301777.
Data set [20] can be described thus: method code SF-AS, from DOI: 10.1021/js960328j, PMID: 9050798. Conditions: pH 6.6.
Data set [21] in a line: method code SF-HPLC, from DOI: 10.1021/js970451q, PMID: 9687340. Conditions: pH 6.0.
Data set [22] in a line: method code SF-RC, from PMID: 3382460. The conditions noted are these: pH 7.0.
The nature of data set [23]: method code G-GLC, from DOI: 10.1021/es00169a004.
Test in data set [24]: not given
This is another data set of the same source.

Test in data set [25]: not given
The source holds these as a separate data set.

A short description of data set [26]: method code SF, from DOI: 10.1055/s-0038-1624171, PMID: 6548017. Conditions: pH 7.4.
Data set [27] can be described thus: method code SF-AS, from DOI: 10.1016/s0021-9673(03)00617-4, PMID: 12830921.
A short description of data set [28]: method code SF-AS, from DOI: 10.1016/s0090-9556(25)07961-9, PMID: 6130927. Conditions: pH 12.0.
Test in data set [29]: not given
This is another data set of the same source.

Test in data set [30]: not given
This is another data set of the same source.

Test in data set [31]: not given
This is another data set of the same source.

Data set [32] can be described thus: method code SF-RC, from DOI: 10.1023/a:1015825912542, PMID: 1808606. Conditions: pH 7.2.
Data set [33] in a line: method code SF-GLC, from DOI: 10.1021/es00171a006.
The nature of data set [34]: method code SF-AS, from PMID: 1705424. The conditions noted are these: pH 7.4.
Test in data set [35]: not given
This is another data set of the same source.

Data set [36] is described as follows: method code SF-HPLC, from DOI: 10.1016/s0223-5234(97)84356-5.
A short description of data set [37]: method code SF-RC, from DOI: 10.1248/cpb.39.104, PMID: 2049793. Conditions: pH 7.4.
Data set [38] is described as follows: method code SF-HPLC, from DOI: 10.1016/s0928-0987(98)00030-x, PMID: 9845810. The conditions noted are these: pH 7.4.
Test in data set [39]: not given
The source holds these as a separate data set.

Data set [40] can be described thus: method code SF-AS, from DOI: 10.1016/s0006-2952(02)01074-2, PMID: 12392818. Conditions: pH 7.4.
Data set [41] is described as follows: method code SF-AS, from DOI: 10.1002/jps.2600620542, PMID: 4705706.
Data set [42] is described as follows: method code SF-HPLC, from DOI: 10.1002/jps.2600841008, PMID: 8801331. Conditions: pH 3.1.
Test in data set [43]: not given
The source holds these as a separate data set.

Data set [44] in a line: method code SF-EPR, from DOI: 10.1007/bf01870789, PMID: 2549250. Conditions: pH 12.0.

In the case of `CCNC(=O)C1C2CC3C(OC(=O)C31)C2O` (stereo not given), in data set [1], the logP is -0.35.
In turn, `CCOC(=O)c1cccc(C(=O)OCC)n1` displayed a logP in data set [2] of 3.
In data set [3], `Nc1ccc(-c2ccc(N)c(Cl)c2)cc1Cl` showed a logD of 3.51.
Turning to `COC(=O)CN1Cc2ccccc2C1`, the logP in data set [4] is -0.03.
In [5], `c1ccc(Nc2ccccc2)cc1` came in with a logD of 3.57.
`CC(=O)c1ccc(C(C)C)cc1`: the logP came out at 2.98.
In [6], `c1ccc(CNc2ncnc3[nH]cnc23)cc1` gave a logP of 1.57.
The molecule `C=CCOc1ccccc1OCC=C` displayed a logP in data set [7] of 2.7.
With `Cc1nc(C)c(C(=O)Nc2ccccc2)s1`, the logP in [8] came to 1.08.
In data set [9], `CCCOCCc1ccc(O)c(O)c1` showed a logP of 1.64.
In data set [10], `Clc1cccc(-c2ccccc2)c1` came in with a lipophilicity (logP) of 4.71.
`c1cc2c3c(cccc3c1)CC2` had a logP in data set [11] of 3.98.
`CC(SSc1ncc[nH]1)c1ccccc1` (stereo not given) had a logD in data set [12] of 3.39.
`C=CC(=O)OCC(CC)CCCC` (stereo not given) had a logP in [13] of 4.29.
In the case of `Cc1[nH]c(=O)c(C#N)cc1-c1ccncc1`, the logP in [14] came to 0.42.
`CN1C2CCC1C(c1ccc(Cl)nc1)C2` (stereo not given) showed a logD in data set [15] of 2.42.
With `CC(=O)Nc1ccn([C@@H]2O[C@H](CO)[C@@H](O)[C@@H]2O)c(=O)n1`, the logP in [16] is -1.35.
In the case of `Cn1c(C(=O)O)cnc1C(=O)c1ccc([N+](=O)[O-])cc1`, the logD in data set [17] was 2.14.
Take `O=C(c1ccccc1)n1c(=O)[nH]cc(F)c1=O`: the logD in data set [18] stood at 0.8.
Turning to `CCc1nc(N)nc(N)c1-c1ccc(Cl)c(Cl)c1`, the logP in [19] worked out at 3.19.
In turn, `CCCS(=O)c1ccc2[nH]c(NC(=O)OC)nc2c1` (stereo not given) showed a logD in [20] of 1.27.
Turning to `COc1cc(C)nc(-n2nc(C)cc2OC)n1`, the logD in [21] was 1.35.
`CNC(=O)OC1OC(=O)C2C3C=CC(C3)C12` (stereo not given) displayed a logD in data set [22] of 0.63.
`Clc1cc(Cl)c(-c2c(Cl)c(Cl)c(Cl)c(Cl)c2Cl)c(Cl)c1Cl`: the logP in data set [23] was found to be 7.52.
With `Clc1cc(Cl)c(Oc2ccccc2)cc1Cl`, the logP in data set [24] amounted to 5.44.
Regarding `O=C(O)c1cccc2ccccc12`, the logP in [25] was 2.78.
For `O=[N+]([O-])c1nccn1CCOc1ccc(I)cc1`, the pH-dependent lipophilicity (logD) in data set [26] was 2.84.
`CCc1c(C)nc2ccccn2c1=O`: the logP in [27] was 1.58.
Turning to `CC(C)[C@@H](N)Cc1ccccc1`, the logD in [28] came to 2.59.
In data set [29], `OC1(c2ccc(Cl)cc2)CCNCC1` displayed a logP of 1.98.
As for `CCCCCCCCn1sc(Cl)c(Cl)c1=O`, the logP in [30] came out at 4.9.
Molecule `CC(C)NCC(O)c1ccc(Cl)c(Cl)c1` (stereo not given) gave a logP in [31] of 3.32.
For the molecule `CC(=O)NC(Cc1ccccc1)C(N)=O` (stereo not given), in data set [32], the logD was 0.05.
The molecule `Clc1cc(Cl)c2c(c1Cl)Oc1ccccc1O2` gave a logP in [33] of 5.57.
With `CC(C)Cn1cnc2c1c(=O)n(C)c(=O)n2C`, in [34], the logD is 1.28.
Molecule `Nc1ccc(S(=O)(=O)Nc2cccc(Cl)c2Cl)cc1` showed a logP in [35] of 2.62.
For the molecule `CC(=O)Nc1nc2c(ncn2COCCOC(C)=O)c(=O)[nH]1`, the logP in data set [36] is -0.83.
The molecule `CNC(=S)NN=C(C)C(C)(C)C(C)=NNC(=S)NC` showed a logD in data set [37] of 2.51.
Molecule `Cc1ccc2c(c1)C(=O)N(CCO[N+](=O)[O-])CO2` returned a logD in data set [38] of 2.41.
Consider `CCCCOC(=O)COc1cc(Cl)c(Cl)cc1Cl`, for which the logP in data set [39] worked out at 4.81.
For the molecule `CC(=O)c1cc2ccccc2oc1=O`, the logD in [40] was found to be 1.5.
In data set [41], `O=C(c1ccncc1)c1ccc(Cl)cc1` came in with a logP of 2.61.
In turn, `O=C(O)CCCCc1ccccc1` displayed a logD in data set [42] of 2.73.
As to `O=S(c1cc(Cl)cc(Cl)c1O)c1cc(Cl)cc(Cl)c1O`, in data set [43], the logP amounted to 4.13.
Consider `CN(C)C1CC(C)(C)N(O)C(C)(C)C1`, for which the logD in [44] was found to be 1.13.

In general, logP refers to a log measure of how a compound divides between an organic and an aqueous phase. A word on the logD: it is lipophilicity at a set pH, counting ionised and neutral species. Low readings indicate a more hydrophilic compound, high ones a more lipophilic compound.
